Experimental findings from ChEMBL document CHEMBL1201862, “PubChem BioAssay data set” (2004) are described below.

Calls of active or inactive are those of the source. Where only a bound is given, the exact number is not on record here.

Assay [1] can be described thus: Luminescence-based dose response cell-based high throughput screening assay for cytotoxic compounds using the IEC-6 intestinal epithelial cell line. [Related pubchem assays: 1858 (Summary AID.), 1825 (Counterscreen.), 1907 (Confirmation screen.)]. It is filed as functional. (In general: Counterscreens check selectivity or assay interference.)
Assay [2] can be described thus: non-specific 3'UTR reporter inhibition in Clone20-Shn3RL – cell-based, Renilla luciferase, cherry-picked, counter-screen for Shn3 inhibitor project, dose response (AID 624133). Format: functional.
A short description of assay [3]: reduction of Shn3 3'UTR-driven luciferase in osteoblasts – cell-based, Clone20 osteoblasts, firefly luciferase, cherry-picked, dose response (AID 624132).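 Also: firefly luciferase luminescence from reporter carrying the Shn3 3'UTR in osteoblasts.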 It is filed as functional.
Assay [4] concerns the target T1, Serine/threonine-protein phosphatase (Homo sapiens, UniProt Q9BPW0).
T1 sequence (Q9BPW0 whole entry): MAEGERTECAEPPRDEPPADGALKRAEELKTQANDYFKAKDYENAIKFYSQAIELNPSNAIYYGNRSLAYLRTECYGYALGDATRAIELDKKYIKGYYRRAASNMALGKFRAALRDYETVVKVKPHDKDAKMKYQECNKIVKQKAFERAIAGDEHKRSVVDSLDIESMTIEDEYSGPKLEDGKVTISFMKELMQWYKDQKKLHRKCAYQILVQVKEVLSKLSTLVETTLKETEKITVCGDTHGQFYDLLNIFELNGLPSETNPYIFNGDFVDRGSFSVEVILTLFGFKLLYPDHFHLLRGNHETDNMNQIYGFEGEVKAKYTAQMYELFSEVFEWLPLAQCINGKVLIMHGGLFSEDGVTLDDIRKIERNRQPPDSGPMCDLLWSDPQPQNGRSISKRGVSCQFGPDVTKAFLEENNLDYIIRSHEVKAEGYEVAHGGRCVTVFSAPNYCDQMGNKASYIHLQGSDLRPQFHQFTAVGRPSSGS
As to the kind of experiment: inhibition of protein phosphatase 5 activity – biochemical, fluorescence, dose response (AID 2395).

Another assay deals with T2, Caspase-3 (Homo sapiens, UniProt P42574).
T2 sequence (P42574 whole entry): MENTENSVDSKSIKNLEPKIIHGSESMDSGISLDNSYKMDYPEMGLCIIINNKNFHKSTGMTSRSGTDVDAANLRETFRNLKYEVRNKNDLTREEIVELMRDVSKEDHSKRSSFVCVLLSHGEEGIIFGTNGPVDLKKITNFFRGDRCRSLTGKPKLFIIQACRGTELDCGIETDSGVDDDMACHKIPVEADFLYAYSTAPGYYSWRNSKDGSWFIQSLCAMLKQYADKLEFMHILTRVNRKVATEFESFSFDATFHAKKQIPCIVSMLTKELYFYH
It is filed as functional.

Assay [5] concerns the target RNA-editing ligase 1, mitochondrial (Trypanosoma brucei brucei, UniProt P86926). As to the kind of experiment: inhibition of trypanosome RNA editing ligase – biochemical, fluorescence, Trypanosoma brucei, dose response (AID 1117295). Format: functional.
Assay [6] is described as follows: viability of uninfected HEp-2 cells – cell-based, HTS, cytotoxicity control for RSV inhibitor project, dose response (AID 2410). Format: functional. Particulars: human respiratory syncytial virus.
A further assay concerns the target T3, Hexokinase HKDC1 (Homo sapiens, UniProt Q2TB90).
T3 sequence (Q2TB90 whole entry): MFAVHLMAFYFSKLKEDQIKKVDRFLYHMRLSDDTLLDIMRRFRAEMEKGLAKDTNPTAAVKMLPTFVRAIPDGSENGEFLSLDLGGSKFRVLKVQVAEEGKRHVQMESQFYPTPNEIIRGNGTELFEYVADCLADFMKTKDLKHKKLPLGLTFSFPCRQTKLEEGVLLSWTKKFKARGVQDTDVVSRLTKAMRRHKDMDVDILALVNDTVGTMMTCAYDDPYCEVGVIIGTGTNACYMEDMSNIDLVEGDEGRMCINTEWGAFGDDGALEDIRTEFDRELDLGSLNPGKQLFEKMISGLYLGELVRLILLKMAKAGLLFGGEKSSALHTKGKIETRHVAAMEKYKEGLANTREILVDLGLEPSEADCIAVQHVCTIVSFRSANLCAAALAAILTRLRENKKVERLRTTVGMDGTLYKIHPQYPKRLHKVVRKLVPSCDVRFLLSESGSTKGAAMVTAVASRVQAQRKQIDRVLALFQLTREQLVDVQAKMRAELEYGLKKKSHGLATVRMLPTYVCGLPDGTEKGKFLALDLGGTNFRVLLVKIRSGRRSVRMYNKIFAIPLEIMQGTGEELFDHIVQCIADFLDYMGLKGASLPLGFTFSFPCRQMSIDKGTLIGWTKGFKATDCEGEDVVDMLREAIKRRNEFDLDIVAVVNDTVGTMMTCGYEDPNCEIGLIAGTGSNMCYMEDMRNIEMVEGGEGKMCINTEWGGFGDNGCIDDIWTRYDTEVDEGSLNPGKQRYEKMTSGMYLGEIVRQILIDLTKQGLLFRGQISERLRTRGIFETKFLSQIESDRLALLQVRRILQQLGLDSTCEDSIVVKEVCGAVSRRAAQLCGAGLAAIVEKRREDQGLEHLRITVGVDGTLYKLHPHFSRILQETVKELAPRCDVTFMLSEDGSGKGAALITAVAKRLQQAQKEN
As to the kind of experiment: activation of HKDC1 glucose phosphorylation – biochemical, W721R variant, dose response (AID 504730). Format: functional.

Assay [7] addresses Peroxisome proliferator-activated receptor gamma/Nuclear receptor coactivator 1 (Homo sapiens, UniProt P37231). It is filed as functional.
Assay [8] deals with T4, Zinc finger protein mex-5 (Caenorhabditis elegans, UniProt Q9XUB2).
T4 sequence (Q9XUB2 whole entry): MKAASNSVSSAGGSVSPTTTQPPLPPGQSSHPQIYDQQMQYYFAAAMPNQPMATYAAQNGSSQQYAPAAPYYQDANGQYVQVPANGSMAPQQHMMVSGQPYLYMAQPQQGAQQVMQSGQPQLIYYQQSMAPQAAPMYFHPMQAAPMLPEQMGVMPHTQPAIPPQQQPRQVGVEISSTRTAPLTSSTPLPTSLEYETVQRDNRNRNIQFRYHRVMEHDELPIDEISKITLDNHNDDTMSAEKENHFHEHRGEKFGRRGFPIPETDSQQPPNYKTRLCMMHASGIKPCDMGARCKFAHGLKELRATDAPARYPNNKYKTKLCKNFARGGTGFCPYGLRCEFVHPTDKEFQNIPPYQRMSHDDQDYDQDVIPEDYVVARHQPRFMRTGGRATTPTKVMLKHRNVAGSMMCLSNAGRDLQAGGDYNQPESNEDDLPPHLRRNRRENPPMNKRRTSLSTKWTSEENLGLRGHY
The assay can be described thus: potency of MEX-5 RNA-binding blockers – biochemical, C. elegans, fluorescence polarization, dose response (AID 1960). For orientation: In fluorescence polarisation assays a small probe gives low polarisation when free and higher when bound to something large.

Another assay deals with Phospholipase A2 (Homo sapiens, UniProt P04054). Format: functional.
Assay [9] concerns the target T5, Ubiquitin-conjugating enzyme E2 N (Homo sapiens, UniProt P61088).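 Also: Dose-response confirmation in a TR-FRET assay detecting UBC13-driven polyubiquitin chain formation, inhibition measured.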
T5 sequence (P61088 whole entry): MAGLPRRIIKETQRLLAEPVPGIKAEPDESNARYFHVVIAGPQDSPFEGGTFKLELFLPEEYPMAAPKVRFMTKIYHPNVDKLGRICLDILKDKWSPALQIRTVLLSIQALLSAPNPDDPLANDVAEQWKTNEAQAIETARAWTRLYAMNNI
Format: functional.

Assay [10] is described as follows: blockers of HIV-1 ZM109 envelope-driven cell-cell fusion – HeLa effector, CEM target cells, luciferase, cherry-pick, dose response (AID 652058).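 Also: luciferase signal from HIV-1 Env mediated cell-cell fusion of effector and target cells.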 Format: functional, cell-based.

Chain of Peroxisome proliferator-activated receptor gamma/Nuclear receptor coactivator 1 (P37231 whole entry): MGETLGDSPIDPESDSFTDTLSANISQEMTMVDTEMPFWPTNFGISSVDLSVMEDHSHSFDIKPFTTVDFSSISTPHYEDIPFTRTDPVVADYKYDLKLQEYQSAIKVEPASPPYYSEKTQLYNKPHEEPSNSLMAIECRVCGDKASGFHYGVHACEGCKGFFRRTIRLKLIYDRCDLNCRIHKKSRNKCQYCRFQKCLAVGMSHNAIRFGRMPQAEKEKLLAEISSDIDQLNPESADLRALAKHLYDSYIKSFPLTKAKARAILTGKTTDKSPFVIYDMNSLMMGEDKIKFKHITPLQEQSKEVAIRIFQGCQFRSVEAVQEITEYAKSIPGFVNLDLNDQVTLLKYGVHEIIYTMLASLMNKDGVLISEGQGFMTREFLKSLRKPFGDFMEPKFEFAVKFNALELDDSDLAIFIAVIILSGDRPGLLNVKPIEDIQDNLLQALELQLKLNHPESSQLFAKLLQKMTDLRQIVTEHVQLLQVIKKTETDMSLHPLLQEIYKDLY
Chain of Peroxisome proliferator-activated receptor gamma/Nuclear receptor coactivator 1 (Q15788 whole entry, further chain): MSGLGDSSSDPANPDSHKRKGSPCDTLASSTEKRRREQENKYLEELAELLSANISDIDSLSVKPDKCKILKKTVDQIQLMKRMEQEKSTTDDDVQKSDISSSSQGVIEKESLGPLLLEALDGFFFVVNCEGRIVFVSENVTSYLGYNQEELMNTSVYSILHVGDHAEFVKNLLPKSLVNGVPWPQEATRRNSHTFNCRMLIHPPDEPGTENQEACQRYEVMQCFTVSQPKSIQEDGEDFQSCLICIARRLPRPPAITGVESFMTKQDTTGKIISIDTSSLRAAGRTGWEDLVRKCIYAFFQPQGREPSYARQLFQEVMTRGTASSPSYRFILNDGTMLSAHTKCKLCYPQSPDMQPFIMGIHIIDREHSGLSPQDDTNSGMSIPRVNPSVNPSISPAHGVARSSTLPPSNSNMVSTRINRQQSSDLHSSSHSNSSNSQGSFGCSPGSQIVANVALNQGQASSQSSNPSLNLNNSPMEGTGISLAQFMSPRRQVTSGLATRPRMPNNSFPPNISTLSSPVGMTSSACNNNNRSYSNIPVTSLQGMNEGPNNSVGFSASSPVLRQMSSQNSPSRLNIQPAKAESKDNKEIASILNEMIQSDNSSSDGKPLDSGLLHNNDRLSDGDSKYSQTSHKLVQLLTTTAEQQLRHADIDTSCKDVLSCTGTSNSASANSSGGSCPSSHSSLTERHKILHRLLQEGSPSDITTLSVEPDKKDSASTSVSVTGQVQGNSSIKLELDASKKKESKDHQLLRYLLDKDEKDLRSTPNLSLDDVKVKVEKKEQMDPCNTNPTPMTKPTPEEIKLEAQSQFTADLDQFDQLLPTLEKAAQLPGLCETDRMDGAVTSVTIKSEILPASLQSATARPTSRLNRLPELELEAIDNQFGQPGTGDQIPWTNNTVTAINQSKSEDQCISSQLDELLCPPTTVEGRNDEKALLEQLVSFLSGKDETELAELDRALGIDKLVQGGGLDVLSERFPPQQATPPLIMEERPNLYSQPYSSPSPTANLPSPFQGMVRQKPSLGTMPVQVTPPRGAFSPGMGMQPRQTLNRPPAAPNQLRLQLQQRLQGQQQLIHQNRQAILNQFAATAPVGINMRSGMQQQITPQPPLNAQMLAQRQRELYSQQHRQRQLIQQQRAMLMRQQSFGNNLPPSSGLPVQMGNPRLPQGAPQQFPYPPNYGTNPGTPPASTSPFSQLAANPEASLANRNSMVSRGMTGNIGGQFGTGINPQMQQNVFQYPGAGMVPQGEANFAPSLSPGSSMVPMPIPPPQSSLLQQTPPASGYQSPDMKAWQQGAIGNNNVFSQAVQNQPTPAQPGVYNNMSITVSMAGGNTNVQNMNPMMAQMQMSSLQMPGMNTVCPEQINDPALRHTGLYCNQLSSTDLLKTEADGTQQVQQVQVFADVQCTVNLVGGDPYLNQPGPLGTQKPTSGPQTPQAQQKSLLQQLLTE
Chain of Phospholipase A2 (P04054 whole entry): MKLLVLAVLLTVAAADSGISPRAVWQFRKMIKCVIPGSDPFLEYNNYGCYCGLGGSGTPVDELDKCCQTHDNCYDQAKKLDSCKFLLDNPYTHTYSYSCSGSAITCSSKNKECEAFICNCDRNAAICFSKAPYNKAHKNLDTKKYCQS
Chain of RNA-editing ligase 1, mitochondrial (P86926 whole entry): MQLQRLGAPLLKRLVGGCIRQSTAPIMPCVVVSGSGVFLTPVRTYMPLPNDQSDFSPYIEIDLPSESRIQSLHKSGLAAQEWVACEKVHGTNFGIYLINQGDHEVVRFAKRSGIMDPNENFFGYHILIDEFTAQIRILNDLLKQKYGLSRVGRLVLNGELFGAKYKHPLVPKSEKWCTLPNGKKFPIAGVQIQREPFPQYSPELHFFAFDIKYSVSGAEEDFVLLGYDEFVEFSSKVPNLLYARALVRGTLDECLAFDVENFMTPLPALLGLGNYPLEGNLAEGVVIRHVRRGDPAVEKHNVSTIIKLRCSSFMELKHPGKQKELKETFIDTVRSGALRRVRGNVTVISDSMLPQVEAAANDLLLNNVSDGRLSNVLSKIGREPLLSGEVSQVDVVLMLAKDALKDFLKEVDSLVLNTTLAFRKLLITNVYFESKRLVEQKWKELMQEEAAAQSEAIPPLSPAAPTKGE

For `O=C(Nc1ccccc1Cl)/C(Cl)=C(\Cl)[S+]([O-])c1ccccc1` (stereo not drawn), in assay [1], the IC50 was 2.52 µM (active). Further, the figures for the AC50 in assay [2] and in [3] were 5.77 µM (active) and 438 nM (active), respectively.

Regarding `O=C(NC1(O)C(=O)c2ccccc2C1=O)c1ccccc1`, the IC50 is > 828 nM (active) in assay [4], 69.9 µM (active) at Caspase-3 and 13.7 µM (inactive) in assay [5].

`Cc1cc(C)nc(/N=c2/ssnc2Cl)c1`: the CC50 in assay [6] was 17.4 µM (active). Also, the results for the EC50 (at Hexokinase HKDC1; in assay [7]) were 43.1 µM (inactive) and > 79.4 µM (not active), respectively.

As to `CCCCCCCCCCCCCCCCn1cc[n+](C)c1`, the EC50 in assay [8] is > 300 µM (inconclusive). For the same compound, the IC50 was 5.78 µM (active) at Phospholipase A2 and > 20 µM (inactive) in assay [9]. Also, the AC50 in assay [10] was 23.5 µM (active).

Broadly, the IC50 is the concentration needed to halve the response being measured. For orientation: AC50 means the concentration at which the activity in the assay is half-maximal. For orientation: CC50 means the concentration that lowers cell viability or growth by half. A word on the EC50: it is the concentration needed to bring the measured effect to its halfway point.
